Measured values: patent US20150307938A1, “METHOD TO IDENTIFY A NOVEL CLASS OF IMMUNOLOGIC ADJUVANTS” (Lancell, L.L.C., priority 2011, published 2015)

System: skin
Test: Affymetrix microarray of skin, DBP-4 hr and analogs vs. untreated; gene selection by log-2 fold change, Wilcoxon, Kendall tau (Tables 8, 9)
Assay type: in vivo, mouse

CCCCOC(=O)c1ccccc1C(=O)OCCCC [DBP, dibutylphthalate]
DBP Expression: Socs2 (NM_001168655_at, DBP-4 hr): 8.92
DBP Expression: Socs2 (NM_001168656_at, DBP-4 hr): 8.92
DBP Expression: Socs2 (NM_001168657_at, DBP-4 hr): 8.92
DBP Expression: Arid5a (NM_001172205_at, DBP-4 hr): 7.61
DBP Expression: Arid5a (NM_001172206_at, DBP-4 hr): 7.61
DBP Expression: Nfkb2 (NM_001177369_at, DBP-4 hr): 8.26
DBP Expression: Nfkb2 (NM_001177370_at, DBP-4 hr): 8.26
DBP Expression: Cd44 (NM_001177785_at, DBP-4 hr): 9.82
DBP Expression: Cd44 (NM_001177786_at, DBP-4 hr): 9.82
DBP Expression: Cd44 (NM_001177787_at, DBP-4 hr): 9.82
DBP Expression: Smox (NM_001177833_at, DBP-4 hr): 8.18
DBP Expression: Smox (NM_001177834_at, DBP-4 hr): 8.24
DBP Expression: Smox (NM_001177835_at, DBP-4 hr): 8.44
DBP Expression: Smox (NM_001177836_at, DBP-4 hr): 8.07
DBP Expression: Smox (NM_001177837_at, DBP-4 hr): 8.07
DBP Expression: Smox (NM_001177838_at, DBP-4 hr): 8.44
DBP Expression: Smox (NM_001177839_at, DBP-4 hr): 8.07
DBP Expression: Smox (NM_001177840_at, DBP-4 hr): 8.44
DBP Expression: Pde4b (NM_001177980_at, DBP-4 hr): 8.96
DBP Expression: Pde4b (NM_001177981_at, DBP-4 hr): 8.96
DBP Expression: Pde4b (NM_001177982_at, DBP-4 hr): 8.96
DBP Expression: 5730408K05Rik (NR_027866_at, DBP-4 hr): 8.14
DBP Expression: Arid5a (NR_033310_at, DBP-4 hr): 7.61
Wilcoxon (Socs2 NM_007706_at, DBP-4 hr vs. untreated): No
Kendall (Socs2 NM_007706_at, Kendall tau coefficient): No
Wilcoxon (Socs3 NM_007707_at, DBP-4 hr vs. untreated): Yes
Kendall (Socs3 NM_007707_at, Kendall tau coefficient): No
Wilcoxon (Timp1 NM_001044384_at, DBP-4 hr vs. untreated): Yes
Kendall (Timp1 NM_001044384_at, Kendall tau coefficient): No
DBP Expression: LOC100504977 (XM_003085794_at, DBP-4 hr): 8.47
Wilcoxon: 1810046J19Rik (gene 1810046J19Rik, NM_025559_at, DBP-4 hr vs. untreated): No
Kendall: 1810046J19Rik (gene 1810046J19Rik, NM_025559_at, gene expression vs. output): Yes
Wilcoxon: 4933434E20Rik (gene 4933434E20Rik, NM_025762_at, DBP-4 hr vs. untreated): No
Kendall: 4933434E20Rik (gene 4933434E20Rik, NM_025762_at, gene expression vs. output): Yes
Log2 Expression Level (gene #1 of Table 8): 6.82
Log2 Expression Level (gene #2 of Table 8): 6.93
Log2 Expression Level (gene #3 of Table 8): 9.82
Log2 Expression Level (gene #4 of Table 8): 9.82
Log2 Expression Level (gene #5 of Table 8): 7.53
Log2 Expression Level (gene #6 of Table 8): 6.91
Log2 Expression Level (gene #7 of Table 8): 6.26
Log2 Expression Level (gene #8 of Table 8): 6.91
Log2 Expression Level (gene #9 of Table 8): 6.91
Log2 Expression Level (gene #10 of Table 8): 6.91
Log2 Expression Level (gene #11 of Table 8): 6.26
Log2 Expression Level (gene #12 of Table 8): 6.26
Log2 Expression Level (gene #13 of Table 8): 6.26
Log2 Expression Level (gene #14 of Table 8): 6.13
Log2 Expression Level (gene #15 of Table 8): 6.13
Log2 Expression Level (gene #16 of Table 8): 7.45
Log2 Expression Level (gene #17 of Table 8): 9.48
Log2 Expression Level (gene #18 of Table 8): 9.48
Log2 Expression Level (gene #19 of Table 8): 9.61
Log2 Expression Level (gene #20 of Table 8): 11.11
Log2 Expression Level (gene #21 of Table 8): 9.27
Log2 Expression Level (gene #22 of Table 8): 8.24
Log2 Expression Level (gene #23 of Table 8): 6.89
Log2 Expression Level (gene #24 of Table 8): 8.10
Log2 Expression Level (gene #25 of Table 8): 8.10
Log2 Expression Level (gene #26 of Table 8): 8.56
Log2 Expression Level (gene #27 of Table 8): 8.56
Log2 Expression Level (gene #28 of Table 8): 8.56
Log2 Expression Level (gene #29 of Table 8): 7.22
Log2 Expression Level (gene #30 of Table 8): 8.92
Log2 Expression Level (gene #31 of Table 8): 8.92
Log2 Expression Level (gene #32 of Table 8): 8.92
Log2 Expression Level (gene #33 of Table 8): 6.54
Log2 Expression Level (gene #34 of Table 8): 7.61
Log2 Expression Level (gene #35 of Table 8): 7.61
Log2 Expression Level (gene #36 of Table 8): 9.82
Log2 Expression Level (gene #37 of Table 8): 9.82
Log2 Expression Level (gene #38 of Table 8): 9.82
Log2 Expression Level (gene #39 of Table 8): 8.18
Log2 Expression Level (gene #40 of Table 8): 8.24
Log2 Expression Level (gene #41 of Table 8): 8.44
Log2 Expression Level (gene #42 of Table 8): 8.07
Log2 Expression Level (gene #43 of Table 8): 8.07
Log2 Expression Level (gene #44 of Table 8): 8.44
Log2 Expression Level (gene #45 of Table 8): 8.07
Log2 Expression Level (gene #46 of Table 8): 8.44
Log2 Expression Level (gene #47 of Table 8): 8.96
Log2 Expression Level (gene #48 of Table 8): 8.96
Log2 Expression Level (gene #49 of Table 8): 8.96
Log2 Expression Level (gene #50 of Table 8): 10.11
Log2 Expression Level (gene #51 of Table 8): 8.84
Log2 Expression Level (gene #52 of Table 8): 10.36
Log2 Expression Level (gene #53 of Table 8): 8.58
Log2 Expression Level (gene #54 of Table 8): 10.63
Log2 Expression Level (gene #55 of Table 8): 7.56
Log2 Expression Level (gene #56 of Table 8): 10.17
Log2 Expression Level (gene #57 of Table 8): 8.92
Log2 Expression Level (gene #58 of Table 8): 9.48
Log2 Expression Level (gene #59 of Table 8): 8.72
Log2 Expression Level (gene #60 of Table 8): 7.73
Log2 Expression Level (gene #61 of Table 8): 12.15
Log2 Expression Level (gene #62 of Table 8): 8.52
Log2 Expression Level (gene #63 of Table 8): 11.36
Log2 Expression Level (gene #64 of Table 8): 11.47
Log2 Expression Level (gene #65 of Table 8): 7.88
Log2 Expression Level (gene #66 of Table 8): 8.85
Log2 Expression Level (gene #67 of Table 8): 5.48
Log2 Expression Level (gene #68 of Table 8): 10.24
Log2 Expression Level (gene #69 of Table 8): 6.54
Log2 Expression Level (gene #70 of Table 8): 5.48
Log2 Expression Level (gene #71 of Table 8): 8.51
Log2 Expression Level (gene #72 of Table 8): 9.12
Log2 Expression Level (gene #73 of Table 8): 7.67
Log2 Expression Level (gene #74 of Table 8): 7.70
Log2 Expression Level (gene #75 of Table 8): 9.61
Log2 Expression Level (gene #76 of Table 8): 5.46
Log2 Expression Level (gene #77 of Table 8): 9.71
Log2 Expression Level (gene #78 of Table 8): 10.76
Log2 Expression Level (gene #79 of Table 8): 8.09
Log2 Expression Level (gene #80 of Table 8): 13.23
Log2 Expression Level (gene #81 of Table 8): 6.69
Log2 Expression Level (gene #82 of Table 8): 6.28
Log2 Expression Level (gene #83 of Table 8): 7.59
Log2 Expression Level (gene #84 of Table 8): 8.32
Log2 Expression Level (gene #85 of Table 8): 7.84
Log2 Expression Level (gene #86 of Table 8): 7.16
Log2 Expression Level (gene #87 of Table 8): 9.56
Log2 Expression Level (gene #88 of Table 8): 8.67
Log2 Expression Level (gene #89 of Table 8): 6.04
Log2 Expression Level (gene #90 of Table 8): 10.84
Log2 Expression Level (gene #91 of Table 8): 8.25
Log2 Expression Level (gene #92 of Table 8): 7.56
Log2 Expression Level (gene #93 of Table 8): 9.98
Log2 Expression Level (gene #94 of Table 8): 8.85
Log2 Expression Level (gene #95 of Table 8): 7.22
Log2 Expression Level (gene #96 of Table 8): 8.79
Log2 Expression Level (gene #97 of Table 8): 6.04
Log2 Expression Level (gene #98 of Table 8): 5.99
Log2 Expression Level (gene #99 of Table 8): 10.05
Log2 Expression Level (gene #100 of Table 8): 8.07
Wilcoxon (gene #535 Tmem93 NM_001168470_at, DBP-4 hr vs. untreated): No
Kendall (gene #535 Tmem93 NM_001168470_at, Kendall tau, expression vs. outcome): Yes
Wilcoxon (gene #536 Nfkb2 NM_001177369_at, DBP-4 hr vs. untreated): No
Kendall (gene #536 Nfkb2 NM_001177369_at, Kendall tau, expression vs. outcome): Yes
Wilcoxon (gene #537 Nfkb2 NM_001177370_at, DBP-4 hr vs. untreated): No
Kendall (gene #537 Nfkb2 NM_001177370_at, Kendall tau, expression vs. outcome): Yes
Wilcoxon (gene #538 Zfp518b NM_001177902_at, DBP-4 hr vs. untreated): No
Kendall (gene #538 Zfp518b NM_001177902_at, Kendall tau, expression vs. outcome): Yes
Wilcoxon (gene #539 Ccm2 NM_001190343_at, DBP-4 hr vs. untreated): No
Kendall (gene #539 Ccm2 NM_001190343_at, Kendall tau, expression vs. outcome): Yes
Wilcoxon (gene #540 Ccm2 NM_001190344_at, DBP-4 hr vs. untreated): No
Kendall (gene #540 Ccm2 NM_001190344_at, Kendall tau, expression vs. outcome): Yes
Wilcoxon (gene #541 Meis1 NM_001193271_at, DBP-4 hr vs. untreated): No
Kendall (gene #541 Meis1 NM_001193271_at, Kendall tau, expression vs. outcome): Yes
Wilcoxon (gene #542 Bcar1 NM_001198839_at, DBP-4 hr vs. untreated): No
Kendall (gene #542 Bcar1 NM_001198839_at, Kendall tau, expression vs. outcome): Yes
Wilcoxon (gene #543 Dcaf11 NM_001199009_at, DBP-4 hr vs. untreated): No
Kendall (gene #543 Dcaf11 NM_001199009_at, Kendall tau, expression vs. outcome): Yes
Wilcoxon (gene #544 Rabgef1 NM_001199059_at, DBP-4 hr vs. untreated): No
Kendall (gene #544 Rabgef1 NM_001199059_at, Kendall tau, expression vs. outcome): Yes
Wilcoxon (gene #545 4931408A02Rik NM_001199210_at, DBP-4 hr vs. untreated): No
Kendall (gene #545 4931408A02Rik NM_001199210_at, Kendall tau, expression vs. outcome): Yes
Wilcoxon (gene #546 Cav1 NM_007616_at, DBP-4 hr vs. untreated): No
Kendall (gene #546 Cav1 NM_007616_at, Kendall tau, expression vs. outcome): Yes
Wilcoxon (gene #547 Cdkn2c NM_007671_at, DBP-4 hr vs. untreated): No
Kendall (gene #547 Cdkn2c NM_007671_at, Kendall tau, expression vs. outcome): Yes
Wilcoxon (gene #548 Chd1 NM_007690_at, DBP-4 hr vs. untreated): No
Kendall (gene #548 Chd1 NM_007690_at, Kendall tau, expression vs. outcome): Yes
Wilcoxon (gene #549 Cox8a NM_007750_at, DBP-4 hr vs. untreated): No
Kendall (gene #549 Cox8a NM_007750_at, Kendall tau, expression vs. outcome): Yes
Wilcoxon (gene #550 Epc1 NM_007935_at, DBP-4 hr vs. untreated): No
Kendall (gene #550 Epc1 NM_007935_at, Kendall tau, expression vs. outcome): Yes
Wilcoxon (gene #551 Mpzl2 NM_007962_at, DBP-4 hr vs. untreated): No
Kendall (gene #551 Mpzl2 NM_007962_at, Kendall tau, expression vs. outcome): Yes
Wilcoxon (gene #552 Fnta NM_008033_at, DBP-4 hr vs. untreated): No
Kendall (gene #552 Fnta NM_008033_at, Kendall tau, expression vs. outcome): Yes
Wilcoxon (gene #553 Gcdh NM_008097_at, DBP-4 hr vs. untreated): No
Kendall (gene #553 Gcdh NM_008097_at, Kendall tau, expression vs. outcome): Yes
Wilcoxon (gene #554 Gcnt2 NM_008105_at, DBP-4 hr vs. untreated): No
Kendall (gene #554 Gcnt2 NM_008105_at, Kendall tau, expression vs. outcome): Yes
Wilcoxon (gene #555 Nr3c1 NM_008173_at, DBP-4 hr vs. untreated): No
Kendall (gene #555 Nr3c1 NM_008173_at, Kendall tau, expression vs. outcome): Yes
Wilcoxon (gene #556 Hhex NM_008245_at, DBP-4 hr vs. untreated): No
Kendall (gene #556 Hhex NM_008245_at, Kendall tau, expression vs. outcome): Yes
